Measured values published in patent US20050239873A1 (priority 1999, published 2005).

Assay: Binding to plasma proteins (ultrafiltration)
Format: in vitro ADME, dog
Settings: dog, plasma, presence of NaF+EDTA, read-out: Protein binding, Dog
Experimental: Solutions of 2-OMe antimycin A3 were diluted with plasma (dog or human) containing NaF+EDTA to final concentrations of 1.0 or 0.2 μg/ml. Controls were diluted with water to the same final concentrations. These preparations were incubated at 37° C. for 20 min, at which time portions were taken and placed in the sample reservoirs of Amicon Centrifree® ultrafiltration systems (Millipore Co., Bedford, Mass.). At 37° C., the filter systems were centrifuged until the reservoirs were dry. From each filtrate, portions were taken for analysis by HPLC. The amounts present were designated as “free drug” (F). The concentrations of the unfiltered solutions were also determined by triplicate analyses. This amount represented the “total drug” concentration (T). The percentage of 2-OMe antimycin A3 bound to plasma proteins was calculated by the following formula: % bound=((T−F)/T)×100
Similar experiments were performed for 2-OMe antimycin A3 in dog or rat plasma in the absence of NaF/EDTA.

Q: Which fraction unbound at 20 min, 1000 ng/ml does the source give for CCCC[C@H]1C(=O)OC(C)[C@H](NC(=O)c2cccc(NC=O)c2OC)C(=O)O[C@@H](C)C1OC(=O)CC(C)C (stereo partly shown) [2-OMeA3, Antimycin A3 methyl ether] here?
A: Its fraction unbound at 20 min, 1000 ng/ml is < 0.01.
